Like-named read-outs stand apart in the source and are kept apart here.
Biological target: T1, α7 human nicotinic acetylcholine receptor (α7 nACh receptor) (Homo sapiens, UniProt P36544)
T1 construct: gene CHRNA7; homomeric receptor stably expressed in SH-EP1 cells
Test: Fluo-4 Ca2+ transient potentiation in SH-EP1 cells ([…] ACh); no change in […]-α-bungarotoxin binding
Assay type: cell-based

[1] = SH-EP1, read-out: % potentiation at 10 μM

T1 sequence (P36544 23-502): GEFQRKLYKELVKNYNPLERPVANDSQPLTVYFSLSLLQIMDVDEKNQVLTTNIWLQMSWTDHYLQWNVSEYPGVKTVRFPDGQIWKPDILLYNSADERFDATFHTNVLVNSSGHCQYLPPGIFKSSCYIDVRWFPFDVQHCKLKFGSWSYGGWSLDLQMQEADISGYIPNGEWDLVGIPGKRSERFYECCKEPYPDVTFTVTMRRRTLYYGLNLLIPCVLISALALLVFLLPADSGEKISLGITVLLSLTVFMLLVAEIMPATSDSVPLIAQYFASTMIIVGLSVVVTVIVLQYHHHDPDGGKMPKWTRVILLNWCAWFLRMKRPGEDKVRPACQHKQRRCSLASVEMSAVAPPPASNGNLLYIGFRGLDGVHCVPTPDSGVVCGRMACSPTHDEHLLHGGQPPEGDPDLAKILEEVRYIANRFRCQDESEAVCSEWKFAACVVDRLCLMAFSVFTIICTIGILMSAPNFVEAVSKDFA

O=c1c(O)c(-c2ccc(O)c(O)c2)oc2cc(O)cc(O)c12 [quercetin]
activation at 10 µM (SH-EP1; read-out: % potentiation at 10 μM): 73%

O=c1cc(-c2ccc(O)c(O)c2)oc2cc(O)cc(O)c12 [luteolin]
activation at 10 µM [1]: 72%

O=c1c(O)c(-c2ccc(O)cc2)oc2cc(O)cc(O)c12 [kaempferol]
activation at 10 µM [1]: 81%

O=c1cc(-c2ccc(O)cc2)oc2cc(O)cc(O)c12 [apigenin]
activation at 10 µM [1]: 48%

O=c1c(-c2ccc(O)cc2)coc2cc(O)cc(O)c12 [genistein]
activation at 10 µM [1]: 83%

O=c1c(O)c(-c2ccc(O)c(O)c2)oc2c(O)c(O)cc(O)c12 [gossypetin]
activation at 10 µM [1]: 65%

O=C(CCc1ccc(O)cc1)c1c(O)cc(O)cc1O [phloretin]
activation at 10 µM [1]: 112%

Source: PMC8147998, “Apigenin and Structurally Related Flavonoids Allosterically Potentiate the Function of Human α7-Nicotinic Acetylcholine Receptors Expressed in SH-EP1 Cells” (Cells, 2021)
